Test results taken from ChEMBL document CHEMBL5576078, “Discovery of a potent, orally available furopyridine derivative as a novel selective bromodomain and extra-terminal domain (BET)-first bromodomain (BD1) inhibitor” (Bioorg Med Chem Lett, 2024).

Legend:
[1] = Inhibition of LPS induced IL-6 production in HMVEC cells; details: Homo sapiens
[2] = biological target: T1, Bromodomain-containing protein 4 (Homo sapiens, UniProt O60885); experiment: Inhibition of BRD4 BD1 (unknown origin) by TR-FRET assay
[3] = biological target: T1, Bromodomain-containing protein 4; experiment: Inhibition of BRD4 BD2 (unknown origin) by TR-FRET assay
[4] = biological target: T1, Bromodomain-containing protein 4; experiment: Inhibition of BRD4 BD1 (unknown origin)

| SMILES | IC50 [1] [nM] | IC50 [2] [nM] | IC50 [3] [nM] | IC50 [4] [nM] |
| --- | --- | --- | --- | --- |
| Cc1sc2c(c1C)C(c1ccc(Cl)cc1)=N[C@@H](CC(=O)OC(C)(C)C)c1nnc(C)n1-2 | 45 |  |  |  |
| C[C@@H]1CN(S(C)(=O)=O)CCN1Cc1cc2c(=O)n(C)cc(-c3nc(Cl)c(Cl)n3CC3CCOCC3)c2o1 |  | 150 | 8800 |  |
| C[C@@H]1CN(S(C)(=O)=O)CCN1Cc1cc2c(=O)n(C)cc(-c3cc(NS(C)(=O)=O)ccc3OCC3CC3)c2o1 |  | 11 | 20 |  |
| C[C@@H]1CN(S(C)(=O)=O)CCN1Cc1cc2c(=O)n(C)cc(-c3cc(Cl)nn3CC3CCOCC3)c2o1 |  | 180 | 3600 |  |
| CC(=O)Nc1cc(-c2cn(C)c(=O)c3cc(CN4CCN(S(C)(=O)=O)C[C@H]4C)oc23)ccn1 |  | 63 | 650 | ≤ 100 |
| C[C@@H]1CN(S(C)(=O)=O)CCN1Cc1cc2c(=O)n(C)cc(-c3cccc(NS(C)(=O)=O)c3)c2o1 |  | 27 | 1500 |  |
| C[C@@H]1CN(S(C)(=O)=O)CCN1Cc1cc2c(=O)n(C)cc(-c3nccnc3OCC3CC3)c2o1 |  | 18 | 1600 |  |
| C[C@@H]1CN(S(C)(=O)=O)CCN1Cc1cc2c(=O)n(C)cc(-c3nc(Cl)cn3CC3CCOCC3)c2o1 |  | 53 | > 10000 |  |
